ChEMBL document CHEMBL5465560, “Selectivity Literature for EUbOPEN Chemogenomic Library” (2024)
Each block holds one compound with its values, some of them ahead of it.

Tests used:
[1] = target: Sodium-dependent serotonin transporter (Homo sapiens, UniProt P31645); experiment: Selectivity interaction (Panel of non-epigenetic targets (kinases, GPCRs, ion channels, and transporters, Eurofins) ) EUB0000271b SLC6A4; settings: at 1 µM
[2] = target: Tyrosine-protein kinase ABL1 (Homo sapiens, UniProt P00519); experiment: Selectivity interaction (KinaseProfiler screening (Millipore)) EUB0000601a ABL1; settings: at 3 µM
Tyrosine-protein kinase ABL1, sequence (P00519 whole entry): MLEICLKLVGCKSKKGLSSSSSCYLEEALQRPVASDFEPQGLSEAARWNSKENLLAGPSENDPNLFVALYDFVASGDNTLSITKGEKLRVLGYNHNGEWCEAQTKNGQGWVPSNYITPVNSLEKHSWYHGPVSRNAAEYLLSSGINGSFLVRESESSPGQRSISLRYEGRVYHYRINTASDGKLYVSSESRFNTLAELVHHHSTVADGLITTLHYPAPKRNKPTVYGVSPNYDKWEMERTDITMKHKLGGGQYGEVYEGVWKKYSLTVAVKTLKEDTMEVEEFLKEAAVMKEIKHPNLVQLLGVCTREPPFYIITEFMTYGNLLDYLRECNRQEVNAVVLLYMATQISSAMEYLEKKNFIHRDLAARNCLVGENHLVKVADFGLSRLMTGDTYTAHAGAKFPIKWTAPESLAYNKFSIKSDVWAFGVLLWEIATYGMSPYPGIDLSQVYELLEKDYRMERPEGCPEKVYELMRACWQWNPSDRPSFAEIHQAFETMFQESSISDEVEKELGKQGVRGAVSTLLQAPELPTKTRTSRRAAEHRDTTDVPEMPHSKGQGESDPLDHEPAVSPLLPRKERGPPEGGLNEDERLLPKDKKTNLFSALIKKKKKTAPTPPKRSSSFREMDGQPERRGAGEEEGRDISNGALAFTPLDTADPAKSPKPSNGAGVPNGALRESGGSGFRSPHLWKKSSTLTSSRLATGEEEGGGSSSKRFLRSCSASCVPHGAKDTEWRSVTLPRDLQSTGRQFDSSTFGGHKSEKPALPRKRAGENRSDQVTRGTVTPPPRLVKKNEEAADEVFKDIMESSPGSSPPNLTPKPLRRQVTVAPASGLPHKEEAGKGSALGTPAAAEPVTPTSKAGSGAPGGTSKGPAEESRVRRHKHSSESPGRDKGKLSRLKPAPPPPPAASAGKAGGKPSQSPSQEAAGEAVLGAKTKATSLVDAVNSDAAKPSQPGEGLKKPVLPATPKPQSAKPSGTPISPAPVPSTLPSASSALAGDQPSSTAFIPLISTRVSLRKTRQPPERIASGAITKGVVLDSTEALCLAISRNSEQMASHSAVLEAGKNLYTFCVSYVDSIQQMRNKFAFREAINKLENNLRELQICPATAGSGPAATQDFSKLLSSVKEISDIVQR

[3] = target: Ribosomal protein S6 kinase alpha-1 (Homo sapiens, UniProt Q15418); experiment: Selectivity interaction (Millipore kinase profiler) EUB0000124b RPS6KA1; settings: at 10 µM
Ribosomal protein S6 kinase alpha-1, sequence (Q15418 whole entry, the tested form may be a part): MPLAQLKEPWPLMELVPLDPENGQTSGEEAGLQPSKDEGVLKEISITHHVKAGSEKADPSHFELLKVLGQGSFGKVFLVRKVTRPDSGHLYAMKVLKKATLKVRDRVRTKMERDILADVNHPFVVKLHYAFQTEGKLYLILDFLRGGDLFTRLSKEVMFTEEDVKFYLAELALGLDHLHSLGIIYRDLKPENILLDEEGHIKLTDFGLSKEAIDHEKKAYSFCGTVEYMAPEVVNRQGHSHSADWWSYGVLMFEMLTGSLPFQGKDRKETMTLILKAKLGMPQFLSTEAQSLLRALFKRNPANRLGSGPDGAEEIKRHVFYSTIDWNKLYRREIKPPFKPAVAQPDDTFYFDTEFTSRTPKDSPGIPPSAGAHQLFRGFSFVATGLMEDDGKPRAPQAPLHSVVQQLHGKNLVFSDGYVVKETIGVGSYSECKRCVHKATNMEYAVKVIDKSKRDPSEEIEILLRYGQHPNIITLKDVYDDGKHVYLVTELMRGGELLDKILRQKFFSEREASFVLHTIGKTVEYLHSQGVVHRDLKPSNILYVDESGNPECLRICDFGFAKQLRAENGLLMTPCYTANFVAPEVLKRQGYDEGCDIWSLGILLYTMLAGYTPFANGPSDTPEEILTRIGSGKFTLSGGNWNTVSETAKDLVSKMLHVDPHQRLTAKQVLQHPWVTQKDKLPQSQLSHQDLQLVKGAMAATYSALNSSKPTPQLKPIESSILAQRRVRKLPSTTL

[4] = target: T1, Ankyrin repeat and protein kinase domain-containing protein 1 (Homo sapiens) (UniProt Q8NFD2); experiment: Selectivity interaction (KinomeScan (DiscoverX)) EUB0000618a ANKK1; settings: at 10 µM
T1 sequence (whole entry): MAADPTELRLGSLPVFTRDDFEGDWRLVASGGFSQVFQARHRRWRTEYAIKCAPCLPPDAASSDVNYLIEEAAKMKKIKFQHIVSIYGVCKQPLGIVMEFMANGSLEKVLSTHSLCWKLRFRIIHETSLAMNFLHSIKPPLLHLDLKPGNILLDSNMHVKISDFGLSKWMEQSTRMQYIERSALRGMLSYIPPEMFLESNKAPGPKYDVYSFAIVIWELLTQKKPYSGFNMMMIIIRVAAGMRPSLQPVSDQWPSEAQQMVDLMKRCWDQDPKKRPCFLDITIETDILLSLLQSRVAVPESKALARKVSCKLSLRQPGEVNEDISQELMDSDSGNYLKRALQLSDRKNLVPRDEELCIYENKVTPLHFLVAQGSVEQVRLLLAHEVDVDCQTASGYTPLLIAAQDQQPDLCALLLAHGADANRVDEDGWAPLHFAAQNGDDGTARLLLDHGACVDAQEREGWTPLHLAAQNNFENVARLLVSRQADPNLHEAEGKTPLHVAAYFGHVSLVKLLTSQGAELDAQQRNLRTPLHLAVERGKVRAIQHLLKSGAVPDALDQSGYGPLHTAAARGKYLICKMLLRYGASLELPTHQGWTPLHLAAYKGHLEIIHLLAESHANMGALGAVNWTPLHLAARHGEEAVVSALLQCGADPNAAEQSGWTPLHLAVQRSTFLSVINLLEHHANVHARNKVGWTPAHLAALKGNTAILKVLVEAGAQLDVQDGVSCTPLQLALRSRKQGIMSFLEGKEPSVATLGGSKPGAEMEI

[5] = target: T2, Mitogen-activated protein kinase kinase kinase 5 (Homo sapiens) (UniProt Q99683); experiment: Selectivity interaction (KinomeScan (DiscoverX)) EUB0000045b MAP3K5
T2 sequence (whole entry): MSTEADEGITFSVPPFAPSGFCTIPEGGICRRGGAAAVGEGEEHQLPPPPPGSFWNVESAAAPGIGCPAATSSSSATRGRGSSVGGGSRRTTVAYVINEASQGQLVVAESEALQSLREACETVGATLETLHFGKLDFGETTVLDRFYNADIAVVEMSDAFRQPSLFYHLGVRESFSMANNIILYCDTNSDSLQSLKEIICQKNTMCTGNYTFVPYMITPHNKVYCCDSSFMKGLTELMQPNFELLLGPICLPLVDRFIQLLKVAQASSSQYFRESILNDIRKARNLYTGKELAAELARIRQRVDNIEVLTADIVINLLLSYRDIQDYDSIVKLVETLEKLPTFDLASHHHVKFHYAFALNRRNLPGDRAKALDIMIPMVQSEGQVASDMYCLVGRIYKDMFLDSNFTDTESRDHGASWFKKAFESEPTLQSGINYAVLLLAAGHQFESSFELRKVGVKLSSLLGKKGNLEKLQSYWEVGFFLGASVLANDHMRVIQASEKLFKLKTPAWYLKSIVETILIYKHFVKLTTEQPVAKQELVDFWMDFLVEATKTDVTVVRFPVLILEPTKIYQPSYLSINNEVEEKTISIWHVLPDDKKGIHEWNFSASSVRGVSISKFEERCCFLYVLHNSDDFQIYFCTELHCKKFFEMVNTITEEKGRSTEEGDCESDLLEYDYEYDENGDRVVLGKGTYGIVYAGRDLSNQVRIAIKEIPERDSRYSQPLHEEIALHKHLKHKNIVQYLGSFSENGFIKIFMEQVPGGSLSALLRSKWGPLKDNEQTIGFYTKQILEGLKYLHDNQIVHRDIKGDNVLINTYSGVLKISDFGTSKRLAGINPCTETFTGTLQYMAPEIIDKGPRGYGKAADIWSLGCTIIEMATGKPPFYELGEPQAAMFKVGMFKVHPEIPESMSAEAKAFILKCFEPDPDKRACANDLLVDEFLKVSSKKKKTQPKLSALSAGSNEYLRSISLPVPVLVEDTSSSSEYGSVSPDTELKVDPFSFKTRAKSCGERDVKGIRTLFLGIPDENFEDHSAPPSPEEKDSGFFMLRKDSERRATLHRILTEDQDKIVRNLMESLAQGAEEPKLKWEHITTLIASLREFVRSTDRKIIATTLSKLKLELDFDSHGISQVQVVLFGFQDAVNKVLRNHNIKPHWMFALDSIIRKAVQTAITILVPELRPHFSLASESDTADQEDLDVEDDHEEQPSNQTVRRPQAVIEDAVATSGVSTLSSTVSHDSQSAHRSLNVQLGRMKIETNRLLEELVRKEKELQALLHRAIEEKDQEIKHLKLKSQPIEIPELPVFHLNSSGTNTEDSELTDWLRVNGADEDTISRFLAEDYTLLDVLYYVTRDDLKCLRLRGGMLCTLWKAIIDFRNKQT

[6] = target: Serine/threonine-protein kinase 32A (Homo sapiens) (UniProt Q8WU08); experiment: Selectivity interaction (KinomeScan (DiscoverX)) EUB0000045b STK32A
Serine/threonine-protein kinase 32A (Homo sapiens), sequence (Q8WU08 whole entry): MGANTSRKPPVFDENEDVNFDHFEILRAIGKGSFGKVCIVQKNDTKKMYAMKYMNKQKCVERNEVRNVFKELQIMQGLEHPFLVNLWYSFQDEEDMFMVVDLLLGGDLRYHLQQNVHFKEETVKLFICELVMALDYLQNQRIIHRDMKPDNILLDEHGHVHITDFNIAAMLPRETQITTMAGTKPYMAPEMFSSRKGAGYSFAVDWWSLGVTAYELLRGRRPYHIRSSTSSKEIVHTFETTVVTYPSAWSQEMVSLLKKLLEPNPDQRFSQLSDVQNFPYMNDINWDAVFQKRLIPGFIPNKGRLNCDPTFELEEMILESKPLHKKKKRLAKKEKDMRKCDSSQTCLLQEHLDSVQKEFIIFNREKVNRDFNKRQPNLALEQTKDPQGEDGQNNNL

[7] = tested on: Angiopoietin-1 receptor (Homo sapiens), Q02763 [R849W]; experiment: (§1) Selectivity interaction (ProQinase) EUB0000171b TEK
Angiopoietin-1 receptor (Homo sapiens), Q02763 [R849W], sequence (Q02763 whole entry R849W): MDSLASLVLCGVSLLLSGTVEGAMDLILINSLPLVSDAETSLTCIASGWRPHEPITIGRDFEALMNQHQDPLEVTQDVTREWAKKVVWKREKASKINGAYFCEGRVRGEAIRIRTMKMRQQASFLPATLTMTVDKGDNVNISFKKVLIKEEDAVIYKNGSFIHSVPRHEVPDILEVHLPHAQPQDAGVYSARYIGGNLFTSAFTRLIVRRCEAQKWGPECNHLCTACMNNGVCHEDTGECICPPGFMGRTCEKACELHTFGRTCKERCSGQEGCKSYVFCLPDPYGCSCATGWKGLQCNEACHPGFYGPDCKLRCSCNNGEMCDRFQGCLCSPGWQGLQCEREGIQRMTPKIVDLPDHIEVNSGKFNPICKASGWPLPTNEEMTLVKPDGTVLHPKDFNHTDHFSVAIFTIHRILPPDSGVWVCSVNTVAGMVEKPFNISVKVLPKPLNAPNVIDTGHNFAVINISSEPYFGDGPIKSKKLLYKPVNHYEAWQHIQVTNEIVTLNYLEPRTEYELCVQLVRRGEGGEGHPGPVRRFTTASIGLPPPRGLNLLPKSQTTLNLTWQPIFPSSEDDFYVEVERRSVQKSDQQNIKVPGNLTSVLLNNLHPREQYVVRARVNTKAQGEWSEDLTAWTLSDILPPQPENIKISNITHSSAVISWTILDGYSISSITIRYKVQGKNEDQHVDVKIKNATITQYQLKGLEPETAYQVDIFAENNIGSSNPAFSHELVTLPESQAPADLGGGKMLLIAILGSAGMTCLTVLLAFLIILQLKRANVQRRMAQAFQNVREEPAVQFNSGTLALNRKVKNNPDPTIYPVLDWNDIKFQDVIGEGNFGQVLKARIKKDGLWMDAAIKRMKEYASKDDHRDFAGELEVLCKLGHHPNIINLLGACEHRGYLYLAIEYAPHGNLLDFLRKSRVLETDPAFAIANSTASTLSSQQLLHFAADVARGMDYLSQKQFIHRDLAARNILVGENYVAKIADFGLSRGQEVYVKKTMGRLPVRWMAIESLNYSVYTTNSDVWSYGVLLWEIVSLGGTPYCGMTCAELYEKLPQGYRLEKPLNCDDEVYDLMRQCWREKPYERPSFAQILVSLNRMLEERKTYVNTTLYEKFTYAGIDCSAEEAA

[8] = tested on: Angiopoietin-1 receptor (Homo sapiens), Q02763 [Y897S]; experiment: as §1
Angiopoietin-1 receptor (Homo sapiens), Q02763 [Y897S], sequence (Q02763 whole entry Y897S): as the sequence (Q02763 whole entry R849W) above, with W849R, Y897S counted along it

[9] = target: Angiopoietin-1 receptor (Homo sapiens) (UniProt Q02763); experiment: as §1
Angiopoietin-1 receptor (Homo sapiens), sequence (Q02763 whole entry): as the sequence (Q02763 whole entry R849W) above, with W849R counted along it

[10] = target: Dual specificity mitogen-activated protein kinase kinase 2 (Homo sapiens) (UniProt P36507); experiment: Selectivity interaction (LanthaScreen Eu Kinase Binding Assay) EUB0001632a MAP2K2; settings: at 10 µM
Dual specificity mitogen-activated protein kinase kinase 2 (Homo sapiens), sequence (P36507 whole entry): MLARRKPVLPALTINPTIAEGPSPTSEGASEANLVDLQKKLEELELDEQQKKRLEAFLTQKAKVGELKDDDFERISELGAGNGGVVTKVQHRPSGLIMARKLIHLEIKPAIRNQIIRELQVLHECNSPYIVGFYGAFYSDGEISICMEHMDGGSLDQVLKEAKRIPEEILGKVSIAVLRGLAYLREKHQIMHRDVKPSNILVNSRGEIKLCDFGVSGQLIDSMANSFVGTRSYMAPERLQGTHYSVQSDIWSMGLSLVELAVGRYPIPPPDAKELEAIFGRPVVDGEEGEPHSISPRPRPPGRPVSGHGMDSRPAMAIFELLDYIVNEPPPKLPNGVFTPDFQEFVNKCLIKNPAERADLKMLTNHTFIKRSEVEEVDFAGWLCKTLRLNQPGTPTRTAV

Sodium-dependent serotonin transporter, sequence (P31645 whole entry, looked up): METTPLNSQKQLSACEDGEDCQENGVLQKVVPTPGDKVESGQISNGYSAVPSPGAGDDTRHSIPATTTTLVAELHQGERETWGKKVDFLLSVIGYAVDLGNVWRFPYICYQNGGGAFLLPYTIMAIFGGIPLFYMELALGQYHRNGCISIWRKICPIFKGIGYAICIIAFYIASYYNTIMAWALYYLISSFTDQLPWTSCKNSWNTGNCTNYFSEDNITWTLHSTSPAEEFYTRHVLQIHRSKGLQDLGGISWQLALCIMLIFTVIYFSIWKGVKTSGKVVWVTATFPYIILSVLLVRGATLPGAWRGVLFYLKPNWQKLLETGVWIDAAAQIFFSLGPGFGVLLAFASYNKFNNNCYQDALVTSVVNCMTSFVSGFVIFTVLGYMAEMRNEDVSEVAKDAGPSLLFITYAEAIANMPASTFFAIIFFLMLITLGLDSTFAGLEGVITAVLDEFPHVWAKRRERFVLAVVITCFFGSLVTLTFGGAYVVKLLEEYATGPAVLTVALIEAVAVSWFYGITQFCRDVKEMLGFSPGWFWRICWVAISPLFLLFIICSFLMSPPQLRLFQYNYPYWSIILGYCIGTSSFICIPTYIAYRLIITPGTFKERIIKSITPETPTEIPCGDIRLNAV

SMILES: Cc1cc(C)cc([C@@H]2c3cc(C)ccc3NC(=O)CN2C(=O)c2ccc(Br)s2)c1
% of inhibition [1]: -17%

% of inhibition [2]: 57%
SMILES: CCc1cc(Nc2nccc(-c3c(-c4ccc(OC)c(C(=O)Nc5c(F)cccc5F)c4)nc4ccccn34)n2)c(OC)cc1N1CCC(N2CCN(S(C)(=O)=O)CC2)CC1

% of control [3]: 116%
SMILES: CC(=O)Nc1cccc(-n2c(=O)n(C3CC3)c(=O)c3c(Nc4ccc(I)cc4F)n(C)c(=O)c(C)c32)c1

SMILES: O[C@H]1CC[C@H](Nc2ncc3nc(Nc4c(F)cc(F)cc4F)n([C@H]4CCOC4)c3n2)CC1
% of control [4]: 100%

SMILES: C=CC(=O)Nc1cc(-n2c(=O)ccc3cnc4ccc(-c5ccc(NS(C)(=O)=O)cc5)cc4c32)ccc1C
% of control ([5]; at 1 µM): 100%
% of control ([5]; at 10 µM): 100%
% of control ([6]; at 1 µM): 100%
% of control ([6]; at 10 µM): 100%

% of control ([7]; at 1 µM): 92%
% of control ([7]; at 5 µM): 107%
% of control ([8]; at 1 µM): 85%
% of control ([8]; at 5 µM): 85%
% of control ([9]; at 1 µM): 85%
% of control ([9]; at 5 µM): 81%
SMILES: C=CC(=O)Nc1cccc(C(=O)Nc2ccc(Nc3cc(-c4[nH]c(SC)nc4C)ccn3)cc2)c1

% of inhibition [10]: -1.07%
SMILES: Cn1cc(-n2cnc3c(NCc4nc5cc(Cl)c(Cl)cc5[nH]4)nc(N4CCOCC4)nc32)cn1
